The assay relates to blood lipid peroxides. Description: Blood lipid peroxide levels in serum of beagle dogs after oral dosing for 11 days (Yagi's method, fluorometer). As to conditions: relative ratio against averaged pre-dosing level (100), oral capsule once daily, pravastatin 2 mg/kg, mean of 5 dogs.

Source text: Beagle dogs aged 5 months were purchased from Covance Research Products Inc. and used after 1 month of quarantine and acclimatisation breeding.
The required amounts of pravastatin or each component of the combination drug calculated from the body weight of each dog were weighed and filled in a gelatin capsule purchased from TORPAC Inc. Capsules filled with pravastatin were stocked in a refrigerator and those filled with combination drugs stocked at room temperature until use.
The combination drugs were filled in identical gelatin capsules.
Pravastatin or combination drug capsules were forcibly orally administered to each of the test animals once daily between 9:00 and 12:30. Animals were fasted for 2 or 3 hr prior to administration of the capsules.
The administration period was 11 successive days.
Blood (10 mL) was collected from the superficial radial vein 3 or 4 days prior to administration (−3 or −4 days in the first week prior to capsule administration) and 4 and 8 days after administration of the capsule. Animals were fasted for approximately 18 hr prior to blood collection. Collected blood was placed in a test tube and left at room temperature for 0.5–1 hr and centrifuged (3,000 rpm, for 10 min). The obtained serum was used for assays of blood lipid peroxides according to Yagi's methods.
A fluorometer (Hitachi, Ltd., F3000) was used for assay of the lipid peroxides.
The averaged value in each group was obtained from 5 animals a group.

In the case of `CC[C@H](C)C(=O)O[C@H]1C[C@H](O)C=C2C=C[C@H](C)[C@H](CC[C@@H](O)C[C@@H](O)CC(=O)O)[C@H]21` [Pravastatin alone, (+)-(3R,5R)-3,5-dihydroxy-7-[(1S,2S,6S,8S,8aR)-6-hydroxy-2-methyl-8-[(S)-2-methylbutyryloxy]-1,2,6,7,8,8a-hexahydro-1-naphthyl]heptanoate], for the setting “pantethine 300 mg/kg”, the “Blood Lipid Peroxide Levels after administration, 4 days” value (“Blood Lipid Peroxide Levels … 4 days” for short) is 110.8 and the “Blood Lipid Peroxide Levels after administration, 8 days” value (“Blood Lipid Peroxide Levels … 8 days” for short) is listed as 116.2. Where the note is “taurine 1,000 mg/kg”, the “Blood Lipid Peroxide Levels … 4 days” value is given as 110.8 and the “Blood Lipid Peroxide Levels … 8 days” value worked out at 116.2.

On to `NCCS(=O)(=O)O` [Taurine alone, Taurine], for which, under “taurine 1,000 mg/kg”, the “Blood Lipid Peroxide Levels … 4 days” value turned out to be 95.8 and the “Blood Lipid Peroxide Levels … 8 days” value is 93.8.
